We go through 17 molecules from patent US9186381B2, “Medicament for liver regeneration and for treatment of liver failure” (Helmholtz Zentrum Fuer Infektionsforschung GmbH, priority 2011, dated 2015).

The target of one assay is T1, purified MKK4 protein (Homo sapiens, UniProt P45985).
T1 construct: made in house
T1 sequence (P45985 1-399): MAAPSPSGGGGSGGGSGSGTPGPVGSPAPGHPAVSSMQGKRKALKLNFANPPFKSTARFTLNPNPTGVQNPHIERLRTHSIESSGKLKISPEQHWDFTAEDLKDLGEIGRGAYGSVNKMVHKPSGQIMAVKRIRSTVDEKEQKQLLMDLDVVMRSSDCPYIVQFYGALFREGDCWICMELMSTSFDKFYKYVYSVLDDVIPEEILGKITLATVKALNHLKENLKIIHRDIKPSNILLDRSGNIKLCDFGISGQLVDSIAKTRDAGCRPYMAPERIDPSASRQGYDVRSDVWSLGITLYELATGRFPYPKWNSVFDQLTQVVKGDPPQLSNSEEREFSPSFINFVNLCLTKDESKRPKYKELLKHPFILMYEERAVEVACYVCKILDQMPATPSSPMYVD
The assay is described as follows: in vitro MKK4 kinase assay, phosphorylation of substrate JNK1a1 with 32P-ATP. It counts as biochemical. Particulars: for remaining activity at 50 µM: small inhibitory compound final concentration 50 μM, 32P-gATP approx. 10 μM, value is remaining activity, read-out: Inhibition, relative activity of MKK4 compared to control (without additional compound) (%). On the procedure: The inhibitory effect of compounds against MKK4 was analysed in an in vitro assay using purified MKK4 protein, e.g. obtained from a cell line that was genetically manipulated to over-express MKK4 from an expression cassette containing the nucleotide sequence SEQ ID NO: 1204 as a coding sequence and affinity purification using e.g. an antibody directed against MKK4 protein.
In the assay, purified active MKK4 protein was incubated with its substrate JNK1a1 and ^32P-labelled gATP (5 μCi, approx. 10 μM), without additional active compound, with the small inhibitory compound, or with Genistein as a positive control. For the assay, kinase assay buffer (20 mM HEPES pH 7.5; 10 mM MgCl2; 1 mg/ml BSA; 1 mM Na3VO4; 1 mM DTT) was used. An inhibitory effect of the small inhibitory compound (final concentration 50 μM) was detected as a reduction of the phosphorylation activity of MKK4 protein on its substrate JNK1a1 by measuring the amount of radioactive (^32P) phosphate in JNK1a1. Phosphorylation of JNK1a1 was measured in the presence of 2 ml scintillation cocktail per sample by using a scintillation counter (Wallac, Liquid Scintillation Counter). In this assay, Genistein gave an inhibition to approx. 80% activity compared to the assay without additional active compound.

A further assay deals with MKK4 in the liver. Nature of the assay: inhibition of MKK4 in vivo by small inhibitors administered to mice. Conditions: dosage efficient for in vivo inactivation of MKK4. As for the experimental part:
In the alternative to inhibition of MKK4 activity in liver tissue by inhibitory RNA, SP600125, myricitine, Genistein, or PD98059 were used for inactivating MKK4 in the liver. Generally, SP600125, myricitine, Genistein, or PD98059 were administered to mice at a dosage efficient for in vivo inactivation of MKK4. Preferably, the dosage was efficient to inactivate at least 80%, more preferably at least 90 or 95% of mean in vivo MKK4 activity.

In the case of `O=C(O)c1ccc2c3c(ncnc13)-c1ccccc1C2=O` [BAS00368055, 7-oxobenzo[e]perimidine-4-carboxylic acid], the remaining activity at 50 µM on purified MKK4 protein was 66.2%.
Turning to `Cn1c(O)c(C(=O)Nc2ccncc2)c(=O)c2ccccc21` [BAS00525963, 2-hydroxy-1-methyl-4-oxo-N-pyridin-4-ylquinoline-3-carboxamide], at purified MKK4 protein, the remaining activity at 50 µM was determined as 72.6%.
Still for that read-out and setting: for `O=[N+]([O-])c1cccc(/C=N/c2ccc3[nH]ncc3c2)c1O` [BAS00697444, 2-(1H-indazol-5-yliminomethyl)-6-nitrophenolate] the value was 79%.
On to `COc1cc([N+](=O)[O-])cc(/C=N/c2ccc3[nH]ncc3c2)c1O` [BAS00697462, 2-(1H-indazol-5-yliminomethyl)-6-methoxy-4-nitrophenolate], for which, at purified MKK4 protein, the remaining activity at 50 µM stood at 71.1%.
As for `COc1nc(Oc2cccc(/C=C(\C#N)c3nn(CCO)c(N)c3C#N)c2)nc(N2CCCCC2)n1` [BAS00896568, 5-amino-3-[(Z)-1-cyano-2-[3-[(4-methoxy-6-piperidin-1-yl-1,3,5-triazin-2-yl)oxy]phenyl]ethenyl]-1-(2-hydroxyethyl)pyrazole-4-carbonitrile], the remaining activity at 50 µM on purified MKK4 protein was 58.4%.
On to `O=c1c(-c2ccc(O)cc2)coc2cc(O)cc(O)c12` [Genistein], for which the “inhibition to % activity compared to the assay without additional active compound” value at purified MKK4 protein (positive control, remaining activity) is “approx. 80%”. In the assay on MKK4 in the liver, the liver regeneration entry was “significant increase in liver regeneration”, the proliferation result is reported as “increase in proliferation” and the “protection against induced apoptosis” value was “protection against induced apoptosis”.
For `COc1cccc(-c2cc(=O)c3ccccc3o2)c1N` [PD98059], in the assay on MKK4 in the liver, the liver regeneration entry is on record as “significant increase in liver regeneration”, the proliferation result was “increase in proliferation” and the “protection against induced apoptosis” value is given as “protection against induced apoptosis”.
Turning to `Cc1n[nH]c(C)c1CCc1cc(O)n2ncc(C(=O)Nc3ccccc3)c2n1` [SYN22174524, 5-[2-(3,5-dimethyl-1H-pyrazol-4-yl)ethyl]-7-oxo-N-phenyl-1H-pyrazolo[1,5-a]pyrimidine-3-carboxamide], the remaining activity at 50 µM on purified MKK4 protein is 47.8%.
Regarding `Cc1n[nH]c(C)c1CCc1cc(=O)n2ncc(-c3ccc(F)cc3)c2[nH]1` [SYN22174787, 5-[2-(3,5-dimethyl-1H-pyrazol-4-yl)ethyl]-3-(4-fluorophenyl)-1H-pyrazolo[1,5-a]pyrimidin-7-one], the remaining activity at 50 µM on purified MKK4 protein was 41.5%.
Take `Cc1ccc(-c2cnn3c(=O)cc(CCc4c(C)n[nH]c4C)[nH]c23)cc1` [SYN22175977, 5-[2-(3,5-dimethyl-1H-pyrazol-4-yl)ethyl]-3-(4-methylphenyl)-1H-pyrazolo[1,5-a]pyrimidin-7-one]: the remaining activity at 50 µM at purified MKK4 protein was determined as 55.5%.
Regarding `COCc1nn2c(=O)cc(CCc3c(C)n[nH]c3C)[nH]c2c1-c1ccc(Cl)cc1` [SYN22176267, 3-(4-chlorophenyl)-5-[2-(3,5-dimethyl-1H-pyrazol-4-yl)ethyl]-2-(methoxymethyl)-1H-pyrazolo[1,5-a]pyrimidin-7-one], the remaining activity at 50 µM on purified MKK4 protein was determined as 59.1%.
Still for that read-out and setting: the figure for `COCc1nn2c(=O)cc(CCc3c(C)n[nH]c3C)[nH]c2c1-c1ccc(C)cc1` [SYN22176367, 5-[2-(3,5-dimethyl-1H-pyrazol-4-yl)ethyl]-2-(methoxymethyl)-3-(4-methylphenyl)-1H-pyrazolo[1,5-a]pyrimidin-7-one] is 49.9%; for `COc1cccc(-c2nn3c(=O)cc(CCc4c(C)n[nH]c4C)[nH]c3c2C)c1` [SYN22176842, 5-[2-(3,5-dimethyl-1H-pyrazol-4-yl)ethyl]-2-(3-methoxyphenyl)-3-methyl-pyrazolo[5,1-b]pyrimidin-7-ol] it is 54.9%; for `COc1ccccc1-c1nn2c(=O)cc(CCc3c(C)n[nH]c3C)[nH]c2c1C` [SYN22176990, 5-[2-(3,5-dimethyl-1H-pyrazol-4-yl)ethyl]-2-(2-methoxyphenyl)-3-methyl-pyrazolo[5,1-b]pyrimidin-7-ol] it is 58.2%.
Same read-out and setting: for `Cc1n[nH]c(C)c1CCc1cc(=O)n2nc(C)c(-c3ccc(Cl)cc3)c2[nH]1` [SYN22177890, 3-(4-chlorophenyl)-5-[2-(3,5-dimethyl-1H-pyrazol-4-yl)ethyl]-2-methyl-1H-pyrazolo[1,5-a]pyrimidin-7-one] the value was 56.3%.
The same measure, in the same setting: for `Cc1ccc(NC(=O)c2cccc(N(C)C)c2)cc1NC(=O)c1ccc(O)cc1` [ZM 336372, 3-(Dimethylamino)-N-[3-[(4-hydroxybenzoyl)-amino]-4-methylphenyl]benzamide, reference compound] the value was 54.2%.
Take `O=c1c(O)c(-c2cc(O)c(O)c(O)c2)oc2cc(O)cc(O)c12` [myricitine]: in the assay with MKK4 in the liver, the liver regeneration result is reported as “significant increase in liver regeneration”, the proliferation entry was “increase in proliferation” and the “protection against induced apoptosis” value is given as “protection against induced apoptosis”.
